In one data set the target is T1, Tdp1 (Homo sapiens, UniProt Q9NUW8).
T1 construct: Purified Tdp1 (1.5 nM) triggered the reaction
Description: Tdp1 inhibition, fluorescent oligonucleotide biosensor. It is filed as biochemical. To be noted: purified Tdp1 1.5 nM, 50 nM biosensor; read-out: Concentration of half-maximal inhibition of Tdp1 (IC50). The source says: The inhibitory properties of the compound on the purified Tdp1 was studied using a technique developed previously by our team. A 16-mer single-stranded oligonucleotide carrying a fluorophore at the 5′-end and a quencher at the 3′-end was used as a biosensor. When within the Förster radius, the quencher suppressed the fluorescence of the fluorophore. The quencher was removed by Tdp1, resulting in fluorescence emission. Usnic acid derivatives with a bromophenol residue in the enamine fragment (compounds 6 and 8) inhibit the enzyme with half-maximal inhibition concentrations (IC50) an order of magnitude worse than derivatives with a di-tert-butyl fragment (compounds 5 and 7).
An oligonucleotide 5′-[FAM] AAC GTC AGGGTC TTC C [BHQ1]-3′ synthesized in the laboratory Laboratory of Nucleic Acids Chemistry at the Institute of Chemical Biology and Fundamental Medicine (Novosibirsk, Russia) was used as a biosensor. Removal of the quencher (BHQ1) due to enzyme activity leads to increased fluorescence of FAM. The reaction was carried out at different concentrations of inhibitors (1.5% of DMSO, Sigma, St. Louis, MO, USA, in the control samples). The reaction mixtures contained Tdp1 buffer (50 mM Tris-HCl pH 8.0, 50 mM NaCl, and 7 mM β-mercaptoethanol), 50 nM biosensor, and an inhibitor being tested. Purified Tdp1 (1.5 nM) triggered the reaction.
The fluorescence was measured using POLARstar OPTIMA fluorimeter (BMG LABTECH, GmbH, Ortenberg, Germany). The values of IC50 were determined in minimum three independent experiments and were calculated using embedded software MARS Data Analysis 2.0 (BMG LABTECH, GmbH, Ortenberg, Germany).

A short description of data set [1]: MTT cytotoxicity test, A-549. It is filed as cell-based. To be noted: human, A-549 cells (lung cancer), read-out: semitoxic concentration (CC50), A-549. The text has this: (§1) Compounds 6 and 8 with a bromophenol residue in the enamine fragment have a weak or moderate effect on cell survival (Table 1 and Supplementary Figure S1).
(§2) Cytotoxicity of the compounds against human tumor cell lines: HeLa (cervical cancer), HCT-116 (colorectal cancer), A-549 (lung cancer), MCF-7 (breast cancer), T98G (glioblastoma), HepG2 (hepatocarcinoma), and nontumor cell lines: MRC-5 (lung fibroblasts) and HEK293A (human embryonic kidney) was examined using the MTT test. HCT-116 and MRC-5 cell lines were provided by the Cell Culture Bank of the State Research Center for Virology and Biotechnology Vector, Novosibirsk, Russia. A-549, MCF-7, and T98G cell lines were obtained from the Russian Cell Culture Collection (RCCC) Institute of Cytology RAS (St. Petersburg, Russia). HEK293A cells were purchased (ThermoFisher Scientific, Waltham, MA, USA).
(§3) The cell culture medium DMEM medium (Invitrogen, Carlsbad, CA, USA) contained 10% fetal bovine serum (FBS) (Invitrogen), penicillin (100 units/mL), and streptomycin (100 µg/mL). Cells were seeded into 96-well plates at 5000 cells per well and grown at 37 °C and 5% CO2 in a humid atmosphere. At 30–50% confluence, the tested compounds were added to the medium to a final DMSO content of 1%. Control wells contained 1% DMSO. To determine the cytotoxicity of Tdp1 inhibitors, the cells were treated with compounds with concentrations ranging from 1 to 100 µM for 72 h at 37 °C […]. All measurements were repeated a minimum of twice.
A general note: Tetrazolium dyes change colour on reduction, which living cells bring about.

Data set [2] in a line: MTT cytotoxicity test, HCT-116. The class given is cell-based. To be noted: human, HCT-116 cells (colorectal cancer), read-out: semitoxic concentration (CC50), HCT-116.
From the text: as §1, §2, §3

A short description of data set [3]: MTT cytotoxicity test, HEK293A. Particulars: human, HEK293A cells (embryonic kidney, nontumor), read-out: semitoxic concentration (CC50), HEK293A. The class given is cell-based.
From the text: as §1, §2, §3

Data set [4] can be described thus: MTT cytotoxicity test, HeLa. The class given is cell-based. Particulars: human, HeLa cells (cervical cancer), read-out: semitoxic concentration (CC50), HeLa.
From the text: as §1, §2, §3

Data set [5] in a line: MTT cytotoxicity test, MCF-7. The class given is cell-based. Particulars: human, MCF-7 cells (breast cancer), read-out: semitoxic concentration (CC50), MCF-7.
From the text: as §1, §2, §3

A short description of data set [6]: MTT cytotoxicity test, MRC-5. It is filed as cell-based. Particulars: human, MRC-5 cells (lung fibroblasts, nontumor), read-out: semitoxic concentration (CC50), MRC-5.
From the text: as §1, §2, §3

Data set [7] can be described thus: MTT cytotoxicity test, T98G. It is filed as cell-based. To be noted: human, T98G cells (glioblastoma), read-out: semitoxic concentration (CC50), T98G.
From the text: as §1, §2, §3

Data set [8] deals with various types of cultured cells. Briefly: MTT test, panel of cultured cell lines. Particulars: at concentrations up to 100 μM; wide panel of tumor and non-cancerous cell lines. The class given is cell-based.
From the text: as §1, §2
The cell culture medium DMEM medium (Invitrogen, Carlsbad, CA, USA) contained 10% fetal bovine serum (FBS) (Invitrogen), penicillin (100 units/mL), and streptomycin (100 µg/mL). Cells were seeded into 96-well plates at 5000 cells per well and grown at 37 °C and 5% CO2 in a humid atmosphere. At 30–50% confluence, the tested compounds were added to the medium to a final DMSO content of 1%. Control wells contained 1% DMSO. […]

The next data set deals with cells. Particulars: cited from earlier work; for CC50: read-out: CC50 values (toxicity to cells).
Data set [9] concerns mouse Lewis lung adenocarcinoma. The arrangement: method as in PMID 34370156. Particulars: cited from earlier work.

T1 sequence (Q9NUW8 whole entry): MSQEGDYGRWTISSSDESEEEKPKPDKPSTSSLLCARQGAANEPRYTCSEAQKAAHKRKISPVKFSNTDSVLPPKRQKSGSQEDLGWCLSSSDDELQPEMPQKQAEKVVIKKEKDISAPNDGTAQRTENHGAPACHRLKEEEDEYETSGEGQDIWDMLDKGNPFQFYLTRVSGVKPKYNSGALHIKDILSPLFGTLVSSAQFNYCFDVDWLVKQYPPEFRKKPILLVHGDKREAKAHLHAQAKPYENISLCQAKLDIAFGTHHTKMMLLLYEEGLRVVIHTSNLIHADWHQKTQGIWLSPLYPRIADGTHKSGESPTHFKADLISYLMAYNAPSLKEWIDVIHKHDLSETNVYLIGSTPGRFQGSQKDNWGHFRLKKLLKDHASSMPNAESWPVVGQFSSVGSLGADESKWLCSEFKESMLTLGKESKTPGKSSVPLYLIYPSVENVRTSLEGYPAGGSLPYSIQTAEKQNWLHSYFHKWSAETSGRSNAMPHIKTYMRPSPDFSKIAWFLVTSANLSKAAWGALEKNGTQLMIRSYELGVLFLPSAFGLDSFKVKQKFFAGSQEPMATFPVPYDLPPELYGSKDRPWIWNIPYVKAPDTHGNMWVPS

For `C/C(NCCCc1cc(C(C)(C)C)c(O)c(C(C)(C)C)c1)=C1\C(=O)C=C2Oc3c(-c4csc(N/N=C/c5ccc(Br)s5)n4)c(O)c(C)c(O)c3[C@@]2(C)C1=O` [Compound 5, (4E)-10-{2-[(E)-2-[(5-bromothiophenyl)methylidene]hydrazin-1-yl]-1,3-thiazole-4-yl}-4-(1-{[3-(3,5-di-tret-butyl-4-hydroxyhenyl)propyl]amino}ethylidene)-11,13-dihydroxy-2,12-dimethyl-8-oxatricyclo [7.4.0.02,7]trideca-1(13),6,9,11-tetraen-3,5-dione], the IC50 at Tdp1 was 0.14 ± 0.02 µM. The CC50 at 72 h in data set [1], in data set [2], in data set [3], in data set [4], in data set [5] and in data set [6] was greater than 100 µM each time. Besides, the CC50 at 72 h in data set [7] is greater than 100 µM. Besides, the “living cells (metabolic activity, MTT)” value in data set [8] is on record as “more than 50%”.

`CC(=O)C1=C(O)C=C2Oc3c(-c4csc(N/N=C/c5ccc(Br)cc5)n4)c(O)c(C)c(O)c3[C@@]2(C)C1=O` [Compound 4, reference compound]: the IC50 on Tdp1 stood at 0.03 ± 0.01 µM. In addition, the CC50 at 72 h in data set [1] amounted to 3.9 ± 0.2 µM; in data set [2] it was 7 ± 0.6 µM; in data set [3], 12 ± 5 µM; in data set [5], 9.3 ± 2.2 µM; in data set [6], 7 ± 0.7 µM; in data set [7] it was 4 ± 1 µM. In addition, in the data set with cells, the CC50 was 1.5 µM.

In the case of `CC(=O)c1c(O)c(C)c(O)c2c1OC1=CC(=O)/C(=C(\C)NCCCc3cc(C(C)(C)C)c(O)c(C(C)(C)C)c3)C(=O)[C@@]12C` [Compound 1], in the data set on cells, the “toxicity to the different cell types (in words)” value is on record as “nontoxic”. In addition, the “enhancement of the antitumor effect of topotecan” value in data set [9] is “enhanced at least twofold”.

`C/C(Nc1ccc(Br)cc1)=C1\C(=O)C=C2Oc3c(-c4csc(N/N=C/c5ccc(Br)cc5)n4)c(O)c(C)c(O)c3[C@@]2(C)C1=O` [Compound 8, (4E)-4-{1-[(4-bromophenyl)amino]ethilidene}-10-{2-[(E)-2-[(4-bromophenyl)methylidene]hydrazin-1-yl]-1,3-thiazol-4-yl}-11,13-dihydroxy-2,12-dimethyl-8-oxatricyclo [7.4.0.02,7]trideca-1(13),6,9,11-tetraen-3,5-dione]: on Tdp1, the IC50 is 5 ± 1 µM. The CC50 at 72 h is 30 ± 10 µM in data set [1]; 88 ± 26 µM in data set [3]; greater than 100 µM in [4]; 30 ± 20 µM in [5]; 44 ± 13 µM in data set [7].

On to `CC(=O)c1c(O)c(C)c(O)c2c1OC1=CC(=O)/C(=C(\C)Nc3ccc(Br)cc3)C(=O)[C@@]12C` [Compound 2], for which the “toxicity to the different cell types (in words)” value with cells is reported as “nontoxic”.

With `CC(=O)C1=C(O)C=C2Oc3c(-c4csc(N/N=C/c5ccc(Br)s5)n4)c(O)c(C)c(O)c3[C@@]2(C)C1=O` [Compound 3], the CC50 in the data set on cells was 9 to 16 µM.

The values above are taken from paper PMC10816808, “Enhancement of the Antitumor and Antimetastatic Effect of Topotecan and Normalization of Blood Counts in Mice with Lewis Carcinoma by Tdp1 Inhibitors—New Usnic Acid Derivatives” (International Journal of Molecular Sciences, 2024).
